“Also recorded” adds a separate entry of the source. *1 amine or outer side, *2 acyl side, *3 side chain or, on linkers, in order; H or OH if unused. Where a SMILES comes first, the peptide text is derived from it. [ ]: non-standard residue; d: D form. The star is where a group is joined. Dolaproine = CO[C@@H]([C@@H]1CCCN1)[C@@H](C)C(=O)O; Hexanoyl(6-maleimido) = O=C1C=CC(=O)N1CCCCCC(=O)*; Dil = CC[C@H](C)[C@H](NC)[C@@H](CC(=O)O)OC; PABC = O=C(OCc1ccc(N[*:1])cc1)[*:2]; X1 = C[C@@H](N*)[C@@H](O)c1ccccc1; Cit = NC(=O)NCCC[C@H](N)C(=O)O; NMeV = CN[C@H](C(=O)O)C(C)C Where only a bound is given, the exact number is not on record here.

One series deals with TARC, IP10, IL-18, IFNγ. Briefly: phase 1/2 study NCT02572167, serum cytokine and chemokine levels. Type of series: in vivo, human. The method, then: FIGS. 6A-6D show priming of the immune system of patients treated with brentuximab vedotin (BV) in combination with nivolumab.
(§1) A phase 1/2 study (NCT02572167) is ongoing to assess the safety profile and antitumor activity of BV administered in combination with nivolumab in patients with relapsed or refractory Hodgkin lymphoma (HL). Patients will be treated for up to four 21-day cycles with BV 1.8 mg/kg and nivolumab 3 mg/kg. Patients will be administered 1.8 mg/kg BV on Cycle 1 Day 1, and 3 mg/kg nivolumab on Cycle 1 Day 8. For cycles 2 through 4, BV and nivolumab will be administered on Day 1 of each cycle at the same doses, e.g., 1.8 mg/kg BV and 3 mg/kg nivolumab. Both BV and nivolumab will be administered by IV injection. After completion of the Cycle 4 response assessment (EOT), patients will be eligible to undergo ASCT. Responses were assessed using the 2014 Lugano classification (Cheson et al., J Clin Oncol 2014; 32(27):3059-68).

The subject of series [1] is peripheral blood T cell subsets. Briefly: phase 1/2 study NCT02572167, peripheral blood immunophenotyping. Type of series: in vivo, human.
Description: FIGS. 7A-7C show peripheral blood immunophenotyping. T helper subsets, such as Tregs, (FIG. 7A), activated CD4^+ T cells (FIG. 7B), and proliferating CD4^+ T cells (FIG. 7C), which were reduced after single agent BV dosing, expanded after BV and nivolumab combination dosing.
as §1

Series [2] has as its system wild-type A20 cells. Briefly: immunization with drug-killed A20^hcD30 cells, then wild-type A20 challenge. Type of series: in vivo, Balb/c mice. Particulars: mice immunized with drug-killed A20^hcD30 cells; for tumor growth: 5×10^6 wild-type A20 cells s.c. The method, then: A20 mouse lymphoma cells were transfected with plasmid constructs encoding human TNFRSF8 (NM_001243.4) and sgRNA/Cas9 for control under the endogenous promoter of murine Tnfrsf8. Fluorescence activated cell sorting (FACS) yielded a clonal population of A20 cells that stably expressed human CD30, to be referenced as A20^hcD30, in order to be susceptible to brentuximab vedotin treatment.
A20^hcD30 cells were cultured in RPMI 1640 with 10% FBS, 10 mM HEPES, 1 mM sodium pyruvate, penicillin (100 U/ml), and streptomycin (100 μg/ml). A20^hcD30 cells were treated with 1 μg/ml BV or 100 nM mc-vc-MMAE for 4 days. In order to prepare dying cells for immunization, treated A20^hcD30 cells were overlaid atop Histopaque, and centrifuged at 2000 g for 30 minutes. Dead and dying cells were pelleted underneath the Histopaque layer, and viability was assessed to be <20% live cells by trypan blue exclusion. Flash-frozen A20^hcD30 cells were prepared by submerging cells in liquid nitrogen for 10 seconds, followed by immersion in 37° C. water until completely thawed. The liquid nitrogen freeze-thaw process was repeated 5 times. Dead and dying A20^hcD30 cells were resuspended in PBS and 2×10^6 cells were injected into the peritoneum of immune-competent Balb/c mice. 7 days later, mice received a second immunization with dead and dying cells prepared in the same manner.
14 days after initial immunization, mice were subcutaneously implanted with 5×10^6 wild-type A20 cells and monitored for tumor growth. […] As these effects occurred in the absence of any administered therapeutic, the presence of cells killed by BV or MMAE were sufficient to generate long-lasting protective immune memory against subsequent A20 lymphoma challenge.

For series [3], the system named is wild-type A20 cells. Briefly: T cell transfer from immunized mice into A20 tumor-bearing NSG mice. In kind it is in vivo. The method, then:
Immune-competent Balb/c mice were immunized with BV-killed or flash-frozen-killed A20^hcD30 cells as previously described. 16 weeks after initial immunization, spleens were harvested from immunized mice or naïve Balb/c mice, and manually homogenized. Splenic homogenates were combined from 4 mice per immunization, and CD3^+ T cells were isolated using EasySep Mouse T cell Enrichment Kit (Stem Cell Technologies). 1×10^6 CD3+ T cells were administered intravenously into A20 tumor-bearing mice.
4×10^6 wild-type A20 cells were subcutaneously implanted into immunodeficient NOD/SCID/γ-chain-deficient (NSG) mice. 5 days after implant, mice harboring tumors˜100 mm^3 were randomized, and received 1×10^6T cells from mice as described above.

The test system of series [4] is wild-type A20 cells. Briefly: immunization with drug-killed A20^hcD30 cells plus anti-PD-1, A20 challenge. In kind it is in vivo, Balb/c mice. Particulars: anti-PD-1 1 mg/kg i.v. days 6, 9, 14, 17. Here is the method:
Balb/c mice were immunized with BV- or MMAE-killed A20^hcD30 cells as described above. 14 days after initial immunization, mice were subcutaneously implanted with 5×10^6 wild-type A20 cells. Anti-murine PD-1 (1 mg/kg, BioLegend) was administered intravenously on days 6, 9, 14, and 17 after A20 tumor challenge.

In series [5] the test system is LCL tumors. Briefly: T cell and NK cell infiltration into autologous LCL tumors, humanized mouse model. In kind it is in vivo, NSG mice. Particulars: single suboptimal dose 1 mg/kg i.p., autologous PBMC transferred. The method, then: Epstein Barr virus (EBV) transformed lymphoblastoid cell Lines (LCL) were implanted subcutaneously into NSG mice. When LCL tumor volumes reached 250 mm^3, mice received a single suboptimal dose of BV or control hIgG-MMAE (1 mg/kg, i.p). Three days following dosing, 2.0×10^6 autologous peripheral blood mononuclear cells (PBMC) were adoptively transferred to mice via tail vein injection. Eleven days following transfer of PBMC, tumors were harvested, weighed, and manually dissociated through a 70 μm cell strainer. Following centrifugation, individual tumor cell pellets were resuspended in 4 ml of RPMI+10% FCS, and 200 ul of the cell suspension was used for staining and analysis by flow cytometry (FACS). Tumor cell suspensions were stained with Zombie Aqua Viability Dye (Biolegend) followed by staining with fluorescently labeled antibodies targeting human CD19, CD2, CD8, CD4, CD56, human CD45, PD-L1, PD-1, and murine CD45.1 (1:50 dilution, Biolegend) in staining buffer (SB: PBS, 2% FCS, 1% NRS, 0.05% NaN3) at 4° C. for 30 minutes. Cells were washed and resuspended in 120 μl of SB for plate-based FACS using an Attune NXT flow cytometer. All events were collected from 80 μl of sample, and FACS-measured cell concentrations were used to calculate numbers of infiltrating immune cells. CD8^+ T cells were identified as viability dye^neg, hCD45^+, mCD45.1^−, CD2^+, CD8^+ cells. […]

Series [6] has as its system LCL tumors. Briefly: immune-mediated tumor clearance in the humanized LCL tumor model. Type of series: in vivo, NSG mice. Here is the method:
Epstein Barr virus (EBV) transformed lymphoblastoid cell lines (LCL) were implanted subcutaneously into NSG mice. When LCL tumors averaged 250 mm^3, mice received a single suboptimal dose of BV or control hIgG-MMAE (1 mg/kg, i.p). Three days following dosing, 2×10^6 autologous PBMC were adoptively transferred to mice via tail vein injection. Mice received two doses of nivolumab (10 mg/kg, i.p.) 2 and 7 days after adoptive transfer of PBMC. […] The significance of these differences is reflected in a comparison of mean tumor volumes at day 50, during active tumor clearance (FIG. 15B). Taken together, results obtained from this humanized model support the conclusion that in addition to direct tumor cell killing, BV drives an inflammatory response that enhances immune-mediated cellular cytotoxicity and pairs well with nivolumab.

Series [7] concerns CD30+ relapsed, refractory DLBCL. As to conditions: patients treated with BV; cited from earlier work.
Series [8] concerns CD30+ relapsed, refractory peripheral T-cell lymphoma (PTCL). Particulars: patients treated with BV; cited from earlier work.
Series [9] deals with CD30+ cutaneous T-cell lymphoma (CTCL). Particulars: patients treated with BV; cited from earlier work.
The test system of the next series is CD30^+ cell lines. Particulars: in vitro; cited from earlier work.
Series [10] has as its system xenograft models of Hodgkin disease. Particulars: SCID mouse xenograft; cited from earlier work.
For a further series, the target named is T1, PD-1 (Homo sapiens, UniProt Q15116).
T1 construct: Receptor-occupancy data from 15 subjects who received 0.3 mg/kg to 10 mg/kg dosing with nivolumab indicate that PD-1 occupancy appears to be dose-independent; host or cells: endogenous receptor in dosed subjects
T1 sequence (Q15116 25-288): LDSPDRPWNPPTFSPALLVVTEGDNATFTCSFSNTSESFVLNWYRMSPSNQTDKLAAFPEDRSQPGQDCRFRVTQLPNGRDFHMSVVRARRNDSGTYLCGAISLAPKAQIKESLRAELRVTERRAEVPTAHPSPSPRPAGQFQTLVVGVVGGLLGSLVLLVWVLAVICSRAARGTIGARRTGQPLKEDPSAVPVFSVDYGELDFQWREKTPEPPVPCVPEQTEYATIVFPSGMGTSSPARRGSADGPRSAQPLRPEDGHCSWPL
As to conditions: 15 subjects, 0.3 mg/kg to 10 mg/kg nivolumab, across all doses; cited from earlier work.

For series [11] the following is noted: monotherapy, every two weeks; MTD not reached; cited from earlier work.

For “BV: CD30-directed antibody-drug conjugate: chimeric anti-CD30 antibody cAC10, MMAE and a protease-cleavable linker”, the “pro-inflammatory cytokine and chemokine levels” value with TARC, IP10, IL-18, IFNγ (after BV dosing, following concurrent BV and nivolumab) is recorded as “increase”. Moreover, in the series with TARC, IP10, IL-18, IFNγ (after C1D1 BV dosing, with BV and nivolumab dosing), the “Pro-inflammatory cytokine IL-18 levels” value is recorded as “significantly higher”. In the series on TARC, IP10, IL-18, IFNγ (after C1D1 BV, following C1D8 nivolumab dosing), the “T-cell chemokine IP10 levels” value was “significantly higher”. In addition, in the series with TARC, IP10, IL-18, IFNγ (compared to baseline), the “Serum TARC levels” value is reported as “significantly lower”. Moreover, in series [1] (Cycle 1 Day 8, preliminary), the “percentage of CD4+ T regulatory (Treg) cells” value is reported as “decrease” and the “proliferating CD8+ T cells” value is listed as “no effect”. In series [1] (peripheral blood), the “T helper subsets, such as Tregs” value is “initial reduction; also recorded: reduced”; the “activated CD4+ T cells” value is “initial reduction; also recorded: reduced”; the “proliferating CD4+ T cells” value was “initial reduction; also recorded: reduced”. Besides, in the series with wild-type A20 cells [2], the “survival of tumor-bearing mice” value was “increased survival” and the tumor growth entry is given as “delayed tumor growth”. In addition, in the series with wild-type A20 cells [3] (NSG mice given 1×10^6 T cells from mice immunized with BV-killed cells), the tumor growth entry is “slowed tumor growth”. Also, in the series with wild-type A20 cells [3] (NSG mice given T cells from mice immunized with BV-killed cells), the “CD8 T cells within the tumor” value is reported as “increased CD8 T cells within the tumor”. For the same molecule, in the series on wild-type A20 cells [4], the protective anti-tumor immunity result was “conferred protective anti-tumor immunity”. Besides, the “intratumoral accumulation of human cytotoxic cells” value in the series on LCL tumors [5] is listed as “enhanced intratumoral accumulation of human cytotoxic cells”. Further, the tumor rejection result in the series with LCL tumors [6] (suboptimal dose 1 mg/kg i.p. without the addition of PBMC) is “did not reject tumors”. Further, the immune-mediated tumor clearance result in the series with LCL tumors [6] (with autologous PBMC, BV 1 mg/kg i.p., nivolumab 10 mg/kg i.p.) is given as “enhanced immune-mediated tumor clearance”. The ORR in series [7] was 44%. Besides, in series [8], the ORR was 41%. In addition, the ORR in series [9] is listed as 73%.
For “cAC10: chimeric IgG1 monoclonal antibody that specifically binds CD30”, in the series on CD30^+ cell lines, the “growth of CD30+ cell lines” value is reported as “induces growth arrest”. Also, in [10], the antitumor activity result was “pronounced antitumor activity”.
`CC[C@H](C)[C@@H]([C@@H](CC(=O)N1CCC[C@H]1[C@H](OC)[C@@H](C)C(=O)N[C@H](C)[C@@H](O)c1ccccc1)OC)N(C)C(=O)[C@@H](NC(=O)[C@H](C(C)C)N(C)C(=O)OCc1ccc(NC(=O)[C@H](CCCNC(N)=O)NC(=O)[C@@H](NC(=O)CCCCCN2C(=O)C=CC2=O)C(C)C)cc1)C(C)C` [mc-vc-MMAE] ({Hexanoyl(6-maleimido)}-V[Cit][PABC][NMeV]V[Dil][Dolaproine]-X1): in the series on wild-type A20 cells [2], the “survival of tumor-bearing mice” value is given as “increased survival” and the tumor growth entry is “delayed tumor growth”. Further, the protective anti-tumor immunity result in the series with wild-type A20 cells [4] is reported as “conferred protective anti-tumor immunity”.
Turning to nivolumab, the T cells entry in [1] (Cycle 1, one week after nivolumab dosing (2 weeks after BV dosing)) is reported as “robust expansion”. Moreover, in series [1] (most patients (5 of 6, 83%)), the “percentage of CD4+ Th1 cells compared to baseline” value is “no significant change”. On PD-1, the “mean occupancy rate (PD-1)” value was 85% and the “mean plateau occupancy (PD-1)” value was 72%. Moreover, in series [11], the “maximum tolerated dose (MTD)” value is reported as greater than 10 mg/kg.

Values taken from US11299543B2, “Use of an anti-PD-1 antibody in combination with an anti-CD30 antibody in cancer treatment” (Bristol-Myers Squibb Company, priority 2016, dated 2022).
